The values that follow come from article doi:10.1101/442434v2 (biorxiv, 2018).

Usually Ki stands for a dissociation constant, usually derived from enzyme kinetics or from competition with a known ligand. Read a low Ki as tighter binding. For orientation: Km means the substrate concentration at which the rate is half of its maximum. What is called kcat is the number of substrate molecules converted per active site and unit of time at saturation.

The target of data set [1] is T1, AtG6PDH1 (Arabidopsis thaliana, UniProt Q43727).
T1 sequence (Q43727 1-576 limits assumed): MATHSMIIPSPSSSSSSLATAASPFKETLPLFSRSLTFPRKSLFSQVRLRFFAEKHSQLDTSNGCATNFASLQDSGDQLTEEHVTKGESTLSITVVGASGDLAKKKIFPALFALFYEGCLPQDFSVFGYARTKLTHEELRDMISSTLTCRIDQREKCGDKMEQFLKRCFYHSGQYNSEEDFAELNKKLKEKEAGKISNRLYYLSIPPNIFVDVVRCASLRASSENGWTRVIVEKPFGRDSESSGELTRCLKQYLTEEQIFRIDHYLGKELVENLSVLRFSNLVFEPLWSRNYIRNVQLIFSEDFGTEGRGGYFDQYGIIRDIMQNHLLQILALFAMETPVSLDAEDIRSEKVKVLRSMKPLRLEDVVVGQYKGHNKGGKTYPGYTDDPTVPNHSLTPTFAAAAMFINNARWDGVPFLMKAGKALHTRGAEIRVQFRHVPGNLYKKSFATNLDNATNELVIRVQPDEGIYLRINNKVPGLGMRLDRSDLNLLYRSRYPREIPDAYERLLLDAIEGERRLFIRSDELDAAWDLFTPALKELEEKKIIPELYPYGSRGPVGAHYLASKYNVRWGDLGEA
The data set is described as follows: spectrophotometric NADPH formation assay. It is filed as biochemical.

Data set [2] concerns the target T2, AtG6PDH3 (Arabidopsis thaliana, UniProt Q8L743).
T2 sequence (Q8L743 1-599 limits assumed): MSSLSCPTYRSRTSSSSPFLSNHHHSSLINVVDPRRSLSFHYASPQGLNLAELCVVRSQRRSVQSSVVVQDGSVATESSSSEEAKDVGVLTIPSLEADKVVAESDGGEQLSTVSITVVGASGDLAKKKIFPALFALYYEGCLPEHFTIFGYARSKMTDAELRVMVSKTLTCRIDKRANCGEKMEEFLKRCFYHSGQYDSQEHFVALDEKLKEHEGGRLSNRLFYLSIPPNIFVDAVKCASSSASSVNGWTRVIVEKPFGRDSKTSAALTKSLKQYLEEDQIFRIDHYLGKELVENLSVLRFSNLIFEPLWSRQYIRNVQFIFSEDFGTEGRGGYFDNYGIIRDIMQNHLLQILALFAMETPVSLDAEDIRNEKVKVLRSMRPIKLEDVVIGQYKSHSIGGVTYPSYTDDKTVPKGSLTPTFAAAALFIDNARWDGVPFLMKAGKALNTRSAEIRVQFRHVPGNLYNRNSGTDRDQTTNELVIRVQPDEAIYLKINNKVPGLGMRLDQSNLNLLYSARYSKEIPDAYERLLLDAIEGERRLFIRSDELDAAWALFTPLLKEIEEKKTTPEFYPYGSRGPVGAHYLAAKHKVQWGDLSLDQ
In words: spectrophotometric NADPH formation assay. Format: biochemical.

Data set [3] deals with T3, AtG6PDH2 (Arabidopsis thaliana, UniProt Q9FY99).
T3 sequence (Q9FY99 1-596 limits assumed): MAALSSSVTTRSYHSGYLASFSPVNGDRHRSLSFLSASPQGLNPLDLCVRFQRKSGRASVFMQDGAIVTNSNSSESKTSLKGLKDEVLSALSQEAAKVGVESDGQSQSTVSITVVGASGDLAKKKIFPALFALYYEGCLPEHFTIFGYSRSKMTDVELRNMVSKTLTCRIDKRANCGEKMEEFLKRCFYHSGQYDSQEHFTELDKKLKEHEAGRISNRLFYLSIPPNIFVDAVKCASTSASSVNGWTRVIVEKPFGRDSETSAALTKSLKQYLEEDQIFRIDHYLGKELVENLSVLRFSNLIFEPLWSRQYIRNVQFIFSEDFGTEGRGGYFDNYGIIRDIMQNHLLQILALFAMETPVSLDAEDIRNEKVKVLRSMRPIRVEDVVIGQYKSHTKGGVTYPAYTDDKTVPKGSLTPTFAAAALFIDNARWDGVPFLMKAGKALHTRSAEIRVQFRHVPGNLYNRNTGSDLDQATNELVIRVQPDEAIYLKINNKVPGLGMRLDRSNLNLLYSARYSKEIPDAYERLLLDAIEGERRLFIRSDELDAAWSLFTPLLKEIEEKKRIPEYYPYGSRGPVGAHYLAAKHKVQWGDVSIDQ
The data set is described as follows: spectrophotometric NADPH formation assay. Format: biochemical.

Data set [4] concerns the target T4, plastidic AtPGI (Arabidopsis thaliana, UniProt Q8H103).
T4 sequence (Q8H103 49-613): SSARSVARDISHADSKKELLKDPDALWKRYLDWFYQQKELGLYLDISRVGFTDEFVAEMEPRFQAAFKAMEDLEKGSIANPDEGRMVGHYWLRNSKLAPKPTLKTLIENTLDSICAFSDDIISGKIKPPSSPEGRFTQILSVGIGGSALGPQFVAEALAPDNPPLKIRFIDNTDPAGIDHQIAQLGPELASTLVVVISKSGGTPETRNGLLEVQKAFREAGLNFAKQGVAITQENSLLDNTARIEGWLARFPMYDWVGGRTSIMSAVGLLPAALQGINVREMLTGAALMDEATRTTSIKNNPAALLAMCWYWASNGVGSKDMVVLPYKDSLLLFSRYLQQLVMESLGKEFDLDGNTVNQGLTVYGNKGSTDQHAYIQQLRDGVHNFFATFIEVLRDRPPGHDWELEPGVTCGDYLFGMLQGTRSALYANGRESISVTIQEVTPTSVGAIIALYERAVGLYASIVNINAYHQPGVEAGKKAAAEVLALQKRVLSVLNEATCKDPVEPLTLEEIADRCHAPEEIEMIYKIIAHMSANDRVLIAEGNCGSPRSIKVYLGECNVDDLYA
In words: coupled spectrophotometric assay. Format: biochemical.

Data set [5] concerns the target T5, cytosolic AtPGI (Arabidopsis thaliana, UniProt P34795).
T5 sequence (P34795 1-560): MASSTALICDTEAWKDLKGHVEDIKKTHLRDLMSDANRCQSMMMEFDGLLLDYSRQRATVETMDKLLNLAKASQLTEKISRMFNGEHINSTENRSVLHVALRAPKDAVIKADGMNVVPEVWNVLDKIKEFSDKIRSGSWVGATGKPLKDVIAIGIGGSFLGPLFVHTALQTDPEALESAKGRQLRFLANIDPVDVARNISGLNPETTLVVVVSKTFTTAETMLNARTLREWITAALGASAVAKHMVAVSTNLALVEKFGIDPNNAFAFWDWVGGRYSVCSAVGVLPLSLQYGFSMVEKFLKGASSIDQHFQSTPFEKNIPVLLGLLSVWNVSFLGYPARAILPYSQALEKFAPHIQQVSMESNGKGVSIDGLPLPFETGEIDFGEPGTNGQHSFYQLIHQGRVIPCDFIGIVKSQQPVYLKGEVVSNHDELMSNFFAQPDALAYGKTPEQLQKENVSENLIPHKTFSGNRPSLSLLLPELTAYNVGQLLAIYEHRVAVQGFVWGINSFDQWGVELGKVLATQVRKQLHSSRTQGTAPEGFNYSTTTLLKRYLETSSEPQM
In words: biochemical.

Data set [6] addresses T5, cytosolic AtPGI. In words: coupled spectrophotometric assay. Format: biochemical.
Data set [7] has as its target T2, AtG6PDH3. The data set is described as follows: spectrophotometric NADPH formation assay. Format: biochemical. To be noted: substrate inhibition; 0.6 mM NADP+; 150 mM Hepes pH 7.2.
The target in data set [8] is T1, AtG6PDH1. The data set is described as follows: spectrophotometric NADPH formation assay. It is filed as biochemical. The following applies: substrate inhibition; 0.6 mM NADP+; 150 mM Hepes pH 7.2.
For data set [9], the target named is T3, AtG6PDH2. The data set is described as follows: spectrophotometric NADPH formation assay. It is filed as biochemical. To be noted: substrate inhibition; 0.6 mM NADP+; 150 mM Hepes pH 7.2.
Data set [10] concerns the target T4, plastidic AtPGI. The data set is described as follows: biochemical.
Substrate in the data set “purified protein”: NC(=O)c1ccc[n+]([C@@H]2O[C@H](COP(=O)(O)OP(=O)(O)OC[C@H]3O[C@@H](n4cnc5c(N)ncnc54)[C@H](OP(=O)(O)O)[C@@H]3O)[C@@H](O)[C@H]2O)c1
The data set is described as follows: purified protein. The following applies: 150 mM Hepes pH 7.2, varied: cofactor.

For the molecule `NC(=O)C1=CN([C@@H]2O[C@H](COP(=O)(O)OP(=O)(O)OC[C@H]3O[C@@H](n4cnc5c(N)ncnc54)[C@H](OP(=O)(O)O)[C@@H]3O)[C@@H](O)[C@H]2O)C=CC1` [NADPH], the figures for the Ki on AtG6PDH1 [1], on AtG6PDH3 [2] and on AtG6PDH2 [3] were 59 µM, 112 µM and 0.9 µM, respectively.

As for `O=C(O)[C@H](O)[C@@H](O)[C@H](O)[C@H](O)COP(=O)(O)O` [6-phosphogluconic acid], the Ki at plastidic AtPGI [4] turned out to be 31 µM; on cytosolic AtPGI [5], 44 µM; at cytosolic AtPGI [6], 106 µM.

`O=P(O)(O)OC[C@H]1OC(O)[C@H](O)[C@@H](O)[C@@H]1O` (stereo partly shown) [glucose 6-phosphate]: the “G6P Ki” value was 37000 µM at AtG6PDH3 [7], 18900 µM on AtG6PDH1 [8] and 30000 µM at AtG6PDH2 [9].

`O=C[C@H](O)[C@H](O)COP(=O)(O)O` [erythrose 4-phosphate]: the Ki on plastidic AtPGI [4] turned out to be 2.3 µM; on plastidic AtPGI [10], 6 µM; on cytosolic AtPGI [5], 3.7 µM; on cytosolic AtPGI [6] it was 1.5 µM.

B1: AtG6PDH1 (Arabidopsis thaliana) (protein)
chain: T1 sequence (Q43727 1-576 limits assumed)
For B1, in “purified protein” (7.6 mM G6P), the Km was found to be 0.7 µM and the turnover number (kcat) turned out to be 57.0 s⁻¹.

B2: AtG6PDH2 (Arabidopsis thaliana) (protein)
chain: T3 sequence (Q9FY99 1-596 limits assumed)
As for B2, in the data set “purified protein” (15.4 mM G6P), the Michaelis-Menten constant (Km) is given as 1.3 µM and the kcat came out at 39.4 s⁻¹.

B3: AtG6PDH3 (Arabidopsis thaliana) (protein)
chain: T2 sequence (Q8L743 1-599 limits assumed)
In the case of B3, in “purified protein” (7.6 mM G6P), the Km was determined as 0.6 µM and the kcat came to 14.6 s⁻¹.
